Data reported in BindingDB's records for doi:10.1016/j.bmc.2016.08.054 (National Institute of Public Health-National Institute of …, 2016).

What follows are molecules tested against Aminopeptidase N (Sus scrofa) (UniProt P15145) (assay: Inhibition of porcine kidney microsomal LAP using l-leucine-7-amido-4-methylcoumarin as substrate incubated for 10 hrs measured every 6 mins by fluorescence assay).
Chain of Aminopeptidase N (Sus scrofa) (P15145 whole entry, looked up): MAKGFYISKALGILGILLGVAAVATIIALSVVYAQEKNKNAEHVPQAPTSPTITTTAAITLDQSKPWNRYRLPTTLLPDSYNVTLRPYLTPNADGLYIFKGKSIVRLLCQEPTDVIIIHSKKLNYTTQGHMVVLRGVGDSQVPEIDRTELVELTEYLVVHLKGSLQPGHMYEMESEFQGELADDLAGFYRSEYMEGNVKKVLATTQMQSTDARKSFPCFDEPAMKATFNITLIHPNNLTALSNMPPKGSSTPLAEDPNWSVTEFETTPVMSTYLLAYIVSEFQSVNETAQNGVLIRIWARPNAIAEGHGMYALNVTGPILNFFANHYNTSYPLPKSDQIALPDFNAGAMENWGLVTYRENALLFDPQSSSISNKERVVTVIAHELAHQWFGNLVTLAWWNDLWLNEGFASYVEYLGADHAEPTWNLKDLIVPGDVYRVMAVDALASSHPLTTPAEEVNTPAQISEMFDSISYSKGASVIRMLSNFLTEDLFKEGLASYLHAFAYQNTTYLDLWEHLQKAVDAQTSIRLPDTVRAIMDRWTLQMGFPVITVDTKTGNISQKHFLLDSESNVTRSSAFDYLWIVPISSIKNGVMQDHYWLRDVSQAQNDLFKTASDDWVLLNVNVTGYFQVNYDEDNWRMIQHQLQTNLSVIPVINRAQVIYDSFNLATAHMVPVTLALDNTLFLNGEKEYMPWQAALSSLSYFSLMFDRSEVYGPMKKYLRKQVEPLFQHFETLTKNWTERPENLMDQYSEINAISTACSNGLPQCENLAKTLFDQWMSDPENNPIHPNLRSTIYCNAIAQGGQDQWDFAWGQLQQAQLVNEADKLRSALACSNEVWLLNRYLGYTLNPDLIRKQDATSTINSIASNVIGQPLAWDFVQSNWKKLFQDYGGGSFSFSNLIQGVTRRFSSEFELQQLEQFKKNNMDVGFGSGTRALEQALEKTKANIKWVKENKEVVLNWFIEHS

Row | Compound | IC50 [µM]
1 | CCOC(=O)C1(C(=O)OCC)Cc2cc(OCc3ccccc3)cc(OCc3ccccc3)c2C=N1 | 33.6

These molecules were tested against Aminopeptidase N (Sus scrofa) (UniProt P15145) (assay: Inhibition of porcine kidney microsomal LAP using l-leucine-7-amido-4-methylcoumarin as substrate incubated for 60 mins measured every 3 mins by fluorescence assay).

Row | Compound | IC50 [µM]
2 | O=C(O)C1Cc2cc(O)c(Br)c(O)c2C=N1 (configuration not stated) | 76.8
3 | O=C(O)C1Cc2cc(O)c(O)c(Br)c2C=N1 (configuration not stated) | 68.3
4 | O=C(O)C1Cc2cc(O)cc(O)c2C=N1 (configuration not stated) | 379
5 | O=C(O)C1Cc2cc(O)c(O)cc2C=N1 (configuration not stated) | 111
6 | O=C(O)C1Cc2cc(O)c(O)c(O)c2C=N1 (configuration not stated) | 781
7 | O=C(O)C1Cc2cc(O)c(I)cc2C=N1 (configuration not stated) | 69.3
8 | CCOC(=O)C1(C(=O)OCC)Cc2cc(OCc3ccccc3)cc(OCc3ccccc3)c2C=N1 | 16.5
9 | COc1cc2c(cc1OC)CCC(C(=O)OCc1ccccc1)(C(=O)OCc1ccccc1)N=C2 | 1050
10 | O=C(O)C1Cc2cc(O)c(O)c(I)c2C=N1 (configuration not stated) | 63.6
11 | O=C(O)C1Cc2c(O)c(O)cc(Br)c2C=N1 (configuration not stated) | 409
12 | O=C(O)C1CCc2cc(O)c(O)cc2C=N1 (configuration not stated) | 163
